From patent publication US20260159536A1, “AKR1C3-ACTIVATED DNA ALKYLATING AGENT, AND MEDICAL APPLICATION THEREOF” (ASCENTAWITS PHARMACEUTICALS, LTD., priority 2021, published 2026)

Experiments:
[1] = system: human lung cancer NCI-H460 cells; test: In vivo pharmacodynamics, NCI-H460 subcutaneous xenograft model; parameters: species or system BALB/c nude mice; settings: Day 31
Description: BALB/c nude mice were subcutaneously inoculated with human lung cancer NCI-H460 cells to establish a subcutaneous transplantation tumor model of human lung cancer.
The pharmacodynamic analysis of each group in the NCI-H460 CDX model was performed on Day 31 after tumor cell inoculation, and the results were shown in Table 10.

[2] = system: human lung cancer NCI-H460-Luc2 cells (intracranial); test: In vivo pharmacodynamics, NCI-H460-Luc2 intracranial inoculation CDX model; parameters: species or system BALB/c nude mice; settings: for Bioluminescence Value (Day 11) / T/C (%) / TGI (%): i.v. QWx3, Day 11
Description: The experiment was divided into groups of test drug Paclitaxel 20 mg/kg group, Compound A 2 mg/kg, 4 mg/kg and 8 mg/kg groups and 10% ethanol+10% polyoxyethylene castor oil+80% glucose injection DSW (pH 7.42) vehicle control group (Vehicle group), with 6 mice per group. […] The positive drug Paclitaxel 20 mg/kg group was administered by intraperitoneal injection and administered once a week for 3 weeks.
The pharmacodynamic analysis of each group in the human NCI-H460-luc intracranial inoculation model was performed based on the measured bioluminescence values on day 11 after administration, and the results were shown in Table 14.

[3] = system: human liver cancer LI6652; test: In vivo pharmacodynamics, liver cancer LI6652 subcutaneous xenograft PDX model; parameters: species or system BALB/c nude mice; settings: for Relative tumor volume (x ± S) / T/C (%) / TGI (%) / Tumor volume (x ± S): 2 weeks off, 2 cycles
Description: The pharmacodynamic analysis of each group in liver cancer LI6652 model was performed on Day 31 after administration, and the results were shown in Table 12.

[4] = system: HuPrime model LU0884 human lung cancer; test: In vivo pharmacodynamics, lung cancer LU0884 PDX model; parameters: species or system BALB/c nude mice; settings: for T/C (%) / TGI (%) / Relative tumor volume (x ± S) / Tumor volume (x ± S): QWx3, i.v.; for Relative tumor volume (x ± S) / Tumor volume (x ± S): mean ± standard error; for Tumor volume (x ± S): in mm³ (unit assumed)
[5] = Plasma stability test, monkey; assay type: in vitro ADME; settings: 37° C.
Description: The pH of the plasma was checked and recorded. Note: a.
The final concentration of solvent was 0.5%.
The assay was performed in duplicate. […] The tubes were mixed by vortex for 5 minutes.

[6] = system: HuPrime model PA1222 human pancreatic cancer; test: In vivo pharmacodynamics, pancreatic cancer PA1222 PDX model; settings: for Tumor volume: 10 mg/kg i.v.
Description: The test was divided into groups of test drug Gemcitabine 120 mg/kg group, test drug Compound A 10 mg/kg and 7.5% anhydrous ethanol+7.5% polyoxyethylene (35) castor oil+85% glucose injection DSW (pH 7.4) vehicle control group, a total of 3 groups, with 5 mice per group. […] Test drug Gemcitabine (Gemcitabine) 120 mg/kg group was administered intraperitoneally, once a week for three consecutive weeks.

[7] = 1.25 mg/kg i.p. QDx5, 2 days off, Day 28
[8] = 2.5 mg/kg i.p. QDx5, 2 days off, Day 28
[9] = 5 mg/kg i.p. QDx5, 2 days off, Day 28
[10] = Paclitaxel 20 mg/kg, Compound A 2.5, 5, 10 mg/kg

## O=[N+]([O-])c1ccc(C(OP(=O)(N2CC2)N2CC2)C(F)(F)F)cc1Oc1ccc(-c2ccc(F)cc2)c(F)c1 (racemic) [Compound A]
[1]; 10 mg/kg, QWx3, i.v.
  T/C (%): 8.94%
[1]; 10 mg/kg, QWx3, i.v., in mm³ (unit assumed)
  Tumor volume (x ± S): 164.13 ± 34.01
[1]; 15 mg/kg i.v.
  Tumor volume: 125.90 mm^3
[1]; 15 mg/kg, QWx3, i.v.
  Relative tumor volume (x ± S): 0.92 ± 0.22
  TGI (%): 93.06%
[2]; 2 mg/kg
  Bioluminescence Value (Day 11): 7.62 ± 2.10 ×10^5 photon/second
  T/C (%): 0.24%
  TGI (%): 99.80%
[2]; 4 mg/kg
  Bioluminescence Value (Day 11): 1.62 ± 0.30 ×10^5 photon/second
  T/C (%): 0.05%
  TGI (%): 100.03%
[2]; 8 mg/kg
  Bioluminescence Value (Day 11): 1.78 ± 0.42 ×10^5 photon/second
  T/C (%): 0.06%
  TGI (%): 100.03%
[2]; 2, 4, 8 mg/kg i.v.
  body weight change: little change
[3]; [7]
  Relative tumor volume (x ± S): 0.18 ± 0.07
  T/C (%): 1.23%
  TGI (%): 98.77%
  Tumor volume (x ± S): 24.72 ± 9.57
[3]; 1.25 mg/kg i.p., Day 0
  Tumor volume: 126.30 mm^3
[3]; 1.25 mg/kg i.p., Day 3
  Tumor volume: 184.11 mm^3
[3]; 1.25 mg/kg i.p., Day 7
  Tumor volume: 194.19 mm^3
[3]; 1.25 mg/kg i.p., Day 10
  Tumor volume: 135.63 mm^3
[3]; 1.25 mg/kg i.p., Day 14
  Tumor volume: 51.98 mm^3
[3]; 1.25 mg/kg i.p., Day 17
  Tumor volume: 28.94 mm^3
[3]; 1.25 mg/kg i.p., Day 21
  Tumor volume: 29.42 mm^3
[3]; 1.25 mg/kg i.p., Day 24
  Tumor volume: 28.38 mm^3
[3]; 1.25 mg/kg i.p., Day 28
  Tumor volume: 24.72 mm^3
[3]; 1.25 mg/kg i.p., Day 31
  Tumor volume: 18.12 mm^3
[3]; [8]
  Relative tumor volume (x ± S): 0.17 ± 0.10
  T/C (%): 1.16%
  TGI (%): 98.84%
  Tumor volume (x ± S): 18.28 ± 8.14
[3]; 2.5 mg/kg i.p., Day 0
  Tumor volume: 126.29 mm^3
[3]; 2.5 mg/kg i.p., Day 3
  Tumor volume: 179.46 mm^3
[3]; 2.5 mg/kg i.p., Day 7
  Tumor volume: 189.33 mm^3
[3]; 2.5 mg/kg i.p., Day 10
  Tumor volume: 145.19 mm^3
[3]; 2.5 mg/kg i.p., Day 14
  Tumor volume: 43.64 mm^3
[3]; 2.5 mg/kg i.p., Day 17
  Tumor volume: 29.90 mm^3
[3]; 2.5 mg/kg i.p., Day 21
  Tumor volume: 21.49 mm^3
[3]; 2.5 mg/kg i.p., Day 24
  Tumor volume: 17.91 mm^3
[3]; 2.5 mg/kg i.p., Day 28
  Tumor volume: 18.28 mm^3
[3]; 2.5 mg/kg i.p., Day 31
  Tumor volume: 5.56 mm^3
[3]; [9]
  Relative tumor volume (x ± S): 0.02 ± 0.02
  T/C (%): 0.14%
  Tumor volume (x ± S): 3.38 ± 3.38
[3]; 5 mg/kg i.p., Day 0
  Tumor volume: 124.83 mm^3
[3]; 5 mg/kg i.p., Day 3
  Tumor volume: 174.91 mm^3
[3]; 5 mg/kg i.p., Day 7
  Tumor volume: 190.90 mm^3
[3]; 5 mg/kg i.p., Day 10
  Tumor volume: 130.55 mm^3
[3]; 5 mg/kg i.p., Day 14
  Tumor volume: 34.29 mm^3
[3]; 5 mg/kg i.p., Day 17
  Tumor volume: 19.84 mm^3
[3]; 5 mg/kg i.p., Day 21
  Tumor volume: 13.80 mm^3
[3]; 5 mg/kg i.p., Day 24
  Tumor volume: 12.20 mm^3
[3]; 5 mg/kg i.p., Day 28
  Tumor volume: 3.38 mm^3
[3]; 5 mg/kg i.p., Day 31
  Tumor volume: 2.62 mm^3
[3]; 1.25, 2.5, 5 mg/kg i.p.
  relative tumor inhibition TGI (%): exceeding 98%
[3]; 1.25, 2.5, 5 mg/kg, at least 28 days
  effect on body weight: no significant effect on the body weight
[4]; Compound A 2.5 mg/kg, Day 28
  T/C (%): 57.85%
  TGI (%): 42.15%
  Relative tumor volume (x ± S): 3.47 ± 0.56
  Tumor volume (x ± S): 360.43 ± 44.42
[4]; Compound A 5 mg/kg, Day 28
  T/C (%): 43.62%
  TGI (%): 56.38%
  Relative tumor volume (x ± S): 2.61 ± 0.94
  Tumor volume (x ± S): 291.60 ± 103.85
[4]; Compound A 10 mg/kg, Day 28
  T/C (%): 63.02%
  TGI (%): 36.98%
  Relative tumor volume (x ± S): 3.78 ± 1.19
  Tumor volume (x ± S): 434.80 ± 160.03
[4]; Group 4, Compound A 2.5 mg/kg, Day 0
  Size of tumor volume: 109.86 mm^3
[4]; Group 4, Compound A 2.5 mg/kg, Day 4
  Size of tumor volume: 138.21 mm^3
[4]; Group 4, Compound A 2.5 mg/kg, Day 7
  Size of tumor volume: 177.96 mm^3
[4]; Group 4, Compound A 2.5 mg/kg, Day 11
  Size of tumor volume: 194.38 mm^3
[4]; Group 4, Compound A 2.5 mg/kg, Day 14
  Size of tumor volume: 216.81 mm^3
[4]; Group 4, Compound A 2.5 mg/kg, Day 18
  Size of tumor volume: 261.94 mm^3
[4]; Group 4, Compound A 2.5 mg/kg, Day 21
  Size of tumor volume: 287.79 mm^3
[4]; Group 4, Compound A 2.5 mg/kg, Day 25
  Size of tumor volume: 328.61 mm^3
[4]; Group 4, Compound A 2.5 mg/kg, Day 28
  Size of tumor volume: 360.43 mm^3
[4]; Group 5, Compound A 5 mg/kg, Day 0
  Size of tumor volume: 110.67 mm^3
[4]; Group 5, Compound A 5 mg/kg, Day 4
  Size of tumor volume: 173.28 mm^3
[4]; Group 5, Compound A 5 mg/kg, Day 7
  Size of tumor volume: 221.81 mm^3
[4]; Group 5, Compound A 5 mg/kg, Day 11
  Size of tumor volume: 229.45 mm^3
[4]; Group 5, Compound A 5 mg/kg, Day 14
  Size of tumor volume: 236.47 mm^3
[4]; Group 5, Compound A 5 mg/kg, Day 18
  Size of tumor volume: 260.75 mm^3
[4]; Group 5, Compound A 5 mg/kg, Day 21
  Size of tumor volume: 271.59 mm^3
[4]; Group 5, Compound A 5 mg/kg, Day 25
  Size of tumor volume: 289.40 mm^3
[4]; Group 5, Compound A 5 mg/kg, Day 28
  Size of tumor volume: 291.60 mm^3
[4]; Group 6, Compound A 10 mg/kg, Day 0
  Size of tumor volume: 109.04 mm^3
[4]; Group 6, Compound A 10 mg/kg, Day 4
  Size of tumor volume: 202.09 mm^3
[4]; Group 6, Compound A 10 mg/kg, Day 7
  Size of tumor volume: 257.40 mm^3
[4]; Group 6, Compound A 10 mg/kg, Day 11
  Size of tumor volume: 283.55 mm^3
[4]; Group 6, Compound A 10 mg/kg, Day 14
  Size of tumor volume: 293.14 mm^3
[4]; Group 6, Compound A 10 mg/kg, Day 18
  Size of tumor volume: 343.92 mm^3
[4]; Group 6, Compound A 10 mg/kg, Day 21
  Size of tumor volume: 359.85 mm^3
[4]; Group 6, Compound A 10 mg/kg, Day 25
  Size of tumor volume: 411.01 mm^3
[4]; Group 6, Compound A 10 mg/kg, Day 28
  Size of tumor volume: 434.80 mm^3
[4]; [10]
  tolerability: well tolerated
  tumor inhibitory effect: certain tumor inhibitory effects
[5]; Monkey plasma, 5 μM
  Percentage remaining after 2 hours in plasma: 79.20%
[5]; monkey plasma
  remained in plasma after 2 hours: 79.20%
[6]; 10 mg/kg i.v. QWx3
  toxic side effects (body weight change): without toxic side effects
[6]; Day 0
  Tumor volume: 111.50 mm^3
[6]; Day 3
  Tumor volume: 117.62 mm^3
[6]; Day 7
  Tumor volume: 113.91 mm^3
[6]; Day 10
  Tumor volume: 107.17 mm^3
[6]; Day 14
  Tumor volume: 66.08 mm^3
[6]; Day 17
  Tumor volume: 42.94 mm^3
[6]; Day 21
  Tumor volume: 23.22 mm^3
[6]; Day 24
  Tumor volume: 21.20 mm^3
[6]; Day 28
  Tumor volume: 12.51 mm^3
[6]; 10 mg/kg, QWx3, i.v., Day 28
  Relative tumor volume (x ± S): 0.10 ± 0.04
  T/C (%): 2.86%
  TGI (%): 97.14%
  Tumor volume (x ± S): 12.51 ± 5.25
